Test results published in paper PMC9775322, “An Integrated Analysis of Mechanistic Insights into Biomolecular Interactions and Molecular Dynamics of Bio-Inspired Cu(II) and Zn(II) Complexes towards DNA/BSA/SARS-CoV-2 3CL^pro by Molecular Docking-Based Virtual Screening and FRET Detection” (Biomolecules, 2022).

Key:
[1] = tested on: HepG2 Liver cancer cell line; assay: MTT cell viability assay; type: cell-based; conditions: 72 h exposure, at least three independent experiments
[2] = tested on: NHDF Normal human dermal fibroblasts cell line; assay: MTT cell viability assay; type: cell-based; conditions: 72 h exposure
[3] = tested on: MCF-7 Breast cancer cell line; assay: MTT cell viability assay; type: cell-based; conditions: 72 h exposure, at least three independent experiments
EB–DNA = assay: Ethidium bromide displacement assay by fluorescence spectral titration; type: binding, calf; conditions: for LWB Method KLB (Lineweaver-Burk binding constant) / Scatchard Analysis KSA (Scatchard association binding constant) / Scatchard Analysis n (number of binding sites) / n (number of binding sites), DNA binding, Stern–Volmer Method–II / KSV (Stern-Volmer binding constant), DNA binding, Method–I / Kass (association binding constant), DNA binding, Stern–Volmer Method–II: EB–DNA; for LWB Method KLB (Lineweaver-Burk binding constant) / Scatchard Analysis KSA (Scatchard association binding constant) / Scatchard Analysis n (number of binding sites) / n (number of binding sites), DNA binding, Stern–Volmer Method–II / Kq (bimolecular quenching rate constant), DNA binding, Stern–Volmer Method–I: pH 7.4; for KSV (Stern-Volmer binding constant), DNA binding, Method–I / Kass (association binding constant), DNA binding, Stern–Volmer Method–II: pH 7.4, 610 nm; for Kq (bimolecular quenching rate constant), DNA binding, Stern–Volmer Method–I: Kq=KSV/τ0, τ0 = 10^−8 S, 610 nm; for P (ratio of fluorescence quantum efficiency of DNA bound and free complex): intercept of F/F0 vs 1/[DNA]; for ΔGb°, DNA binding, Stern–Volmer Method–II: −RT ln Kass, T = 298 K
Method: The DNA/BSA binding properties were acquired from the emission spectral titration with the supporting of the JASCO FP-6300 spectrofluorometer between the 200 and 800 nm regions. It is additional evidence for the complexes’ manner of DNA binding. While DNA (200 µM) was present or absent, we vigilantly monitored the intensity variations between 610 nm and 510 nm during the initial emission and excitation of EB [27]. Correspondingly, the emission titrations for BSA interaction with different concentrations between 2.5 μM and 25 μM for all samples were conducted in a Tris-HCl buffer solution (pH: 7.4) between the regions of 300 nm and 400 nm.
2.2.5. DNA/BSA binding assay by fluorescence titration
The titration was executed by the JASCO FP-6300 spectrofluorometer in the range of 200 – […]
DNA. To assess the relative DNA binding abilities of the test compound to CT-DNA, ethidium bromide (EB) was utilized as a reference. In the experiment, EB solution (20 µM) in 50 mM Tris –HCl /1 mM NaCl buffer solution (pH=7.2) was incubated with the DNA […]
solution (240 µM) at saturated binding levels and stored in a dark place for two hours. The tested compounds (1 –240 µM) were titrated with pre-incubated EB-bound DNA.
Additionally, from 610 nm to 510 nm, in the absence and presence of DNA (240 µM), the intensity changes for initial emission and excitation of EB were cautiously observed. As a conjugate planar molecule, EB's acquired fluorescence intensity is extremely low, but it […]
concentration of the compounds (0-240 µM), the intensity of the EB-DNA system decreases owing to the quenching effect of DNA by the manner of static quenching. It further attributes the generation of ground state DNA – complex adduct owing the cationic metal complexes interacting with the negatively charged oxygen in phosphodiester of DNA and the contraction of DNA pushes a few EB molecules out of DNA base pairs [ 27].
Fcorr = Fobs × e[(Aex× dex) + (Aem× dem)]/ 2 = Fobs × e(Aex + Aem)/ 2 (S12) Fcorr and F obs are represented as the IFE-corrected emission and observed (uncorrected) emission intensities, respectively. d ex and d em are denoted as the cuvette path lengths in the […]
excitation and emission directions, respectively. Also, the alteration in absorbance (OD) at the excitation and fluorescence wavelengths, respectively, is sometimes referred to as A ex and […]
F = 1+KSV [Q] = 1+ Kq τ0 (S13)
Where [Q] is represented as the sample concentration (quencher), the emission intensities F 0 and F are those in the […] of the quencher, respectively.
F ) = log Kass + nlog [Q] (S14)
KEB[EB] = Kapp[compound] (S15)
∆F = (F 0–F), Equation (16) was utilized to examine the Lineweaver –Burk binding constant (KLB) from the linear regression plot of 1/(F0–F) vs 1/[Q]. […]
γ =(F0–F)/F0, CF is denoted as the concentration of sample alone, the linear regression plot of (γ/CF) vs γ was employed to support equation (17), which was used to determine the values of KSA and n, respectively.
2.2.6. FRET calculation by Förster’s theory
Calculating FRET (Fluorescence Resonance Energy Transfer) is a crucial approach in determining the critical distance (r) between donor (BSA) and acceptor (test compound) molecules, in which the binding affinity between the BSA-complex systems could be evalued according to Förster’s theory. The overlap of the emission spectrum of the donor (BSA) and the absorption spectrum of the acceptor (compound) describes that the acceptor (compound) group may get excited as a result of the excited donor's (BSA) energy being lost to the ground

[4] = tested on: A549 Human lung cancer cell line; assay: MTT cell viability assay; type: cell-based; conditions: 72 h exposure, at least three independent experiments

SMILES	IC50 [1] [µM]	IC50 [2] [µM]	IC50 [3] [µM]	LWB Method KLB (Lineweaver-Burk binding constant) (EB–DNA) [M⁻¹]	Scatchard Analysis KSA (Scatchard association binding constant) (EB–DNA) [M⁻¹]	Scatchard Analysis n (number of binding sites) (EB–DNA)	n (number of binding sites), DNA binding, Stern–Volmer Method–II (EB–DNA)	KSV (Stern-Volmer binding constant), DNA binding, Method–I (EB–DNA) [M⁻¹]	Kass (association binding constant), DNA binding, Stern–Volmer Method–II (EB–DNA) [M⁻¹]	Kq (bimolecular quenching rate constant), DNA binding, Stern–Volmer Method–I (EB–DNA) [M⁻¹ s⁻¹]	P (ratio of fluorescence quantum efficiency of DNA bound and free complex) (EB–DNA)	ΔGb°, DNA binding, Stern–Volmer Method–II (EB–DNA)	IC50 [4] [µM]
[Cu+2].[O-]c1ccccc1N=Cc1ccc(N2CCOCC2)cc1.[O-]c1ccccc1N=Cc1ccc(N2CCOCC2)cc1.c1cnc2c(c1)ccc1cccnc12 [(1b), [Cu^II(L)2(phen)]]	30.9 ± 1.2	72.6 ± 2.9	31.7 ± 1.3	21654	33302	1.008	1.088	40303	31817	4.0303e+12	0.128	–26.942 kJM^−1	29.7 ± 1.2
[O-]c1ccccc1N=Cc1ccc(N2CCOCC2)cc1.[O-]c1ccccc1N=Cc1ccc(N2CCOCC2)cc1.[Zn+2].c1cnc2c(c1)ccc1cccnc12 [(2b), [Zn^II(L)2(phen)]]	33.4 ± 1.4	74.5 ± 3	32.5 ± 1.3	18218	32941	0.909	1.083	20669	19688	2.0669e+12	0.124	–24.873 kJM^−1	32.1 ± 1.3
Oc1ccccc1N=Cc1ccc(N2CCOCC2)cc1 [(HL), 2-(4-morpholinobenzylideneamino)phenol]				6985	23194	1.096	0.976	11636	9882	1.1636e+12	0.090	–22.790 kJM^−1	
